# In US6294568A, “5-arylpyrrole derivatives” (priority 1997, dated 2001):
# What was measured:
# Human COX-1 = molecular target: T1, Human COX-1 (Homo sapiens, UniProt P23219); test: Human COX-1 Inhibitory Activity Test (TXB2 in blood); type: cell-based; conditions: IC50 from Hill Plot
# T1 construct: endogenous in cells; host or cells: whole blood of a healthy human donor (own knowledge: TXB2 of clotting blood comes from platelet COX-1)
# Method: COX-1 and COX-2 activities were measured according to the method of Patrignani et al. (J. Pharm. Exp. Ther. Vol. 271, 1705 (1994)).
# (1) COX-1 activity was measured in the following procedure. […] The serum obtained by 10 minutes of centrifugation at 2000 rpm at 4° C. was stored at -40° C. until the measurement of the amount of thromboxane B2 (TXB2). The test samples, which had been dissolved in ethanol and diluted to the specified concentrations, were previously dispensed into the glass test tubes, and the solvent was evaporated to dryness by Centrifugal Vaporizer (CVE-200D, manufactured by Tokyo Rika Mfg. Co., Ltd.) so that the test samples were added to the plasma.
# (3) The measurement for the TXB2 content was conducted in the following procedure. In a part of a 96 well plate coated with anti-rabbit IgG antibody, 2 wells were allotted respectively to blank well, Non-specific Binding (NSB) well, Maximum Binding (B0) well, standard wells at 7 concentrations of TXB2 (1000 pg/ml) in doubling dilution ranging from 1000-15.6 pg/ml. The rest of the wells were used for the measurement of the samples. EIA buffer was added to the NSB wells (100 μl ) and B0 wells (50 μl), respectively. 50 μl of each of the standard dilution was added in an order from thinner to thicker concentrations. Each of the samples was added to the rest of the wells in an amount of 50 μl. Then, 50 μl of TXB2 tracer was added to each of the wells except for the blank wells. Further, 50 μl of TXB2 antibody was added to each of the wells except for the NSB wells and blank wells, then the well plate was covered with a plastic film and the reaction continued for 18 hours at room temperature. When the reaction was terminated, the wells were washed 5 times with a wash buffer. 200 μl of Elman's reagent was added to each of the wells and then the well plate was covered with a plastic film and developed for 60 minutes in a dark place. The absorbance at 405 nm was measured by an Immuno Reader (NJ-2000, manufactured by Nippon Intermed Co., Ltd.). From the measurement result, %B/B0 was calculated and, applying it to the approximation formula of Hill Plot, the concentration of the samples was determined to be 2,000 times concentration. […]
# Brewer's Yeast Fever = test: Antipyretic Action Test With Respect To Brewer's Yeast Fever; type: in vivo, rats
# Method: The antipyretic action was measured as described in the following. A sensor was inserted into the rectum of each rats and the body temperature of one hour after the insertion was recorded as the basal body temperature. The rats were injected subcutaneously with 2 ml/body of 20% brewer's yeast at the region of back and, 18 hours after the injection, the intrafebrile body temperatures were measured. Rats who had shown not less than 0.75° C. of body temperature elevation were selected to whom the test samples was administered orally. The body temperatures of the selected rats were measured every one hour for the following 5 hours. The dosage of each of the test samples was 10 mg/kg.
# CaCo-2 cells = test: Cytostatic Action Test on Various Cells (XTT method); type: cell-based
# Method: The cytostatic measurement of the various cancer cells were conducted according to the method of the U.S. National Cancer Institute (NCI). Adhesive cells such as CaCo-2 and HepG2 were adjusted in each of the specified culture mediums at 0.5×10^5 cells/ml concentration and pipetted into a 96 well-plate (Costar3695) in an amount of 100 μl/well. The cells were cultured under the conditions of at 37° C. in 5% CO2 atmosphere for 24 hours to allow the cell adhesion, and then the numbers of each of the cells were determined by the XTT method to be recorded as the cell number of day 0 (C0days). After that, only the medium solutions were exchanged in the control groups, and culture mediums each containing the test samples adjusted to each of the specified concentrations were exchanged In the test sample dispensing groups, then the cells were cultured under the conditions of at 37° C. in 5% CO2 atmosphere for 72 hours. The numbers of each of the cells were determined by the XTT method to be recorded as the cell number of day 3 (C3days). Further, only the medium solutions were pipetted into the control groups and the test sample administration groups were adjusted to 5×10^5 cells/ml concentrations in each of the specified culture mediums containing the test samples adjusted to each of the specified concentrations, then pipetted into a 96 well-plate (Costar3695) in an amount of 100 μl/well. The cells were cultured under the condition of at 37° C. in 5% CO2 atmosphere for 72 hours, and the number of each of the cells (T3days) were determined in the same manner.
# Cell proliferation rate (%) with respect to control groups=[(T3days
# -C0days)/(C3days -C0days)]×100 Formula: 5
# carrageenan footedema = test: Carrageenan Footedema Suppression Test; type: in vivo, SD rats; conditions: oral; paw volume three hours after carrageenan administration
# [1] = tested on: pain threshold of brewer's yeast inflamed hind paw; test: Analgesic Action Test (Randall et al.); type: in vivo, SD rats; conditions: 3 mg/kg oral, 3 hours
# Method: SD rats (6 rats per group) fasted overnight were employed for the test. After the measurement of pain threshold values of the left and right hind paws twice using an analgesimeter, the rats were injected subcutaneously with 0.1 ml of 20% brewer's yeast solution at the plantar area of the right hind paw to elicit inflammation. Two hours after the elicitation of inflammation, the pain threshold values of the left and right hind paws were measured and, immediately after the measurement, the test samples were administered orally to the rats. Three hours after the administration, the pain threshold values of the left and right hind paws were measured. […] The dosage amount of each of the test samples was 3 mg/kg.
# Pain threshold value rising rate (%)=((pain threshold value of 3 hours after drug administration-pain threshold value of 2 hours after yeast administration)/(pain threshold value before yeast administration-pain threshold value of 2 hours after yeast administration))×100
# Pain threshold value fluctuation rate (%)=(1 -(pain threshold value of 3 hours after drug administration/pain threshold value of 2 hours after […]
# T1 sequence (P23219 24-599): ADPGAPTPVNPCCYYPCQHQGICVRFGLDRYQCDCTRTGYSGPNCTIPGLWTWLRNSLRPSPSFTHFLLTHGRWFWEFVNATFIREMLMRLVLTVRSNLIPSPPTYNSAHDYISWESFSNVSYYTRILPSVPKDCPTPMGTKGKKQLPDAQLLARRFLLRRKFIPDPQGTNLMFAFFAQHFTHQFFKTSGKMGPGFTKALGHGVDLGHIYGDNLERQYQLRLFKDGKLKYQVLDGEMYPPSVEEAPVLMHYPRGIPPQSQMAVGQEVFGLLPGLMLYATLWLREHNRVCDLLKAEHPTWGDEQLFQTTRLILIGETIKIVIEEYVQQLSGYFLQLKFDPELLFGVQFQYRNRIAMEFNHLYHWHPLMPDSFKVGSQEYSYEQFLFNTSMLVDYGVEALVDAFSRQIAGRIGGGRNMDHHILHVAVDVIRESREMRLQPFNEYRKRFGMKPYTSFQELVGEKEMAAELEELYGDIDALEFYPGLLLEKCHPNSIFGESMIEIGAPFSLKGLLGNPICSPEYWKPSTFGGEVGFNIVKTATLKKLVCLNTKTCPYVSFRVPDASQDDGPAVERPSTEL
structure (smiles),measurement,setting,value
"Cc1cc(-c2ccc(F)cc2)c(-c2ccc(S(C)(=O)=O)cc2)[nH]1 [Preparation Example 1, 4-(4-fluorophenyl)-2-methyl-5-(4-methylsulfonylphenyl)-1H-pyrrole]",IC50,Human COX-1,649 µM
same,Body temperature 1 Hour After,"Brewer's Yeast Fever; 10 mg/kg oral, 1 hour after",37.98 °C
same,Body temperature 3 Hours After,"Brewer's Yeast Fever; 10 mg/kg oral, 3 hours after",37.10 °C
same,Body temperature 5 Hours After,"Brewer's Yeast Fever; 10 mg/kg oral, 5 hours after",37.13 °C
same,Intrafebrile Body Temperature,"Brewer's Yeast Fever; 18 hours after yeast injection, before administration, 10 mg/kg group",39.08 °C
same,Basal Body Temperature,"Brewer's Yeast Fever; one hour after sensor insertion, before yeast, 10 mg/kg group",37.54 °C
same,cytostatic action,"CaCo-2 cells; CaCo-2 cells, colon cancer cells",demonstrated a cytostatic action with respect to CaCo-2 cells
same,IC50,"CaCo-2 cells; Homo sapiens, CaCo-2, 72 hours, XTT method, read-out: Cytostatic rate (IC50)",0.78 µM
same,Edematization Suppression rate,carrageenan footedema,35.5%
same,Pain Threshold Value Fluctuation Rate,[1]; Left Hind Paw (non-inflammatory paw),2.47%
same,Pain Threshold Value Rising Rate,[1]; Right Hind Paw (inflammatory paw),33.3%
